One experiment concerns C. glabrata NCPF8018. Put plainly: Candida panel MIC, serial dilution in 96-well plates. It counts as cell-based, Candida glabrata. Conditions: Nakaseomyces glabratus. The method in brief:
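MIC taken as lowest concentration inhibiting growth ≥50% relative to drug-free control, from OD530 after 24 hours at 37° C. Fungi at 0.5-5×10^5/mL were exposed to serially diluted compound in RPMI 1640/MOPS/2% glucose medium adjusted to pH 7.0.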

Another experiment concerns C. auris 8971. Described as above. It is filed as cell-based, Candida auris. The method in brief:
(§1)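 MIC = lowest concentration inhibiting growth ≥50% relative to drug-free control, read by OD530 nm after 24 h at 37° C. Medium: RPMI 1640/MOPS/2% glucose, pH 7.0. Inoculum 0.5-5×10^5/mL.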

The next experiment relates to C. auris 8977. The experiment is described as above. It counts as cell-based, Candida auris. The procedure, abridged: as §1
In the next experiment the test system is C. auris 8984. Described as above. It counts as cell-based, Candida auris. The procedure, abridged: as §1
In experiment [1] the test system is Aspergillus fulavus ATCC 204304. In words: Aspergillus panel MIC. It is filed as cell-based. The note with it: Table 8. As to the method: (§2) Starter cultures of fungal strains to be tested were grown in 3 mL of RPMI 2% glucose media incubated at 37° C. with shaking at 200 rpm overnight. The culture media used was 900 mL H2O; 10.4 g RPMI 1640 (with L-glutamine and a pH indicator but without bicarbonate); 34.5 g MOPS and 18 g glucose. The pH of the media was adjusted to 7.0 with 1 M sodium hydroxide.
(§3) Solutions of the compound to be tested were prepared by dissolving the compound in DMSO and subsequently into media to the desired concentrations. 200 μL of compound solution was then added to the wells of the 96-well plate using a serial dilution method row-by row of the plate to give a compound concentration gradient across the plate of from 128 μg/mL to 0.25 μg/mL. The last two rows of each plate were control rows containing the culture media alone and the media plus fungi.
(§4) The fungi starter cultures were diluted 1:10 in water in cuvettes. This was then further diluted to an optical density (OD600) of 0.01 in media. 100 μL of the fungi was added to each well giving a starting concentration of fungus of 0.5-5×10^5/mL. One species of fungus was used on each plate. The plates were then held at 37° C. for 24 hours.
(§5) A plate reader was used to measure growth in each well at OD530 nm and the MIC was determined for each test compound. The MIC is defined as the lowest concentration giving rise to inhibition of ≥50% of that of the drug-free control well containing the fungus and media.
(§6) The compound of Example 2 (which corresponds to compound number 2) was tested against a panel of Aspergillus strains using a method analogous to that described above for the Candida Panel.

Experiment [2] has as its system Aspergillus carbonarius ATCC 8740. Put plainly: Aspergillus panel MIC. It counts as cell-based. Conditions: Table 8. As to the method:
as §2, §3, §4, §5, §6

Experiment [3] concerns Aspergillus fumigatus ATCC 1028. Put plainly: Aspergillus panel MIC. It counts as cell-based. Conditions: Table 8. On the procedure:
as §2, §3, §4, §5, §6

Experiment [4] relates to Aspergillus fumigatus ATCC 16424. Put plainly: Aspergillus panel MIC. The note with it: Table 8. It is filed as cell-based. As to the method: as §2, §3, §4, §5, §6
For experiment [5], the system named is Aspergillus fumigatus ATCC 204305. Put plainly: Aspergillus panel MIC. It counts as cell-based. Conditions: Table 8. As to the method: as §2, §3, §4, §5, §6
Experiment [6] has as its system Aspergillus fumigatus ATCC 13073. Put plainly: Aspergillus panel MIC. It is filed as cell-based. Conditions: Table 8. On the procedure: as §2, §3, §4, §5, §6

The values that follow come from patent US20240246920A1, “TRIAZOLE DERIVATIVES WITH ANTIFUNGAL ACTIVITY” (King's College London, priority 2020, published 2024).

SMILES strings stand for the structures. In brackets after ≈: the same amount, converted by molar mass. Like-named read-outs stand apart in the source and are kept apart here.

`OC(Cn1cncn1)(Cn1cncn1)c1ccc(F)cc1F` [Fluconazole, fluconazole, reference compound]: the MIC (usually the lowest concentration that inhibits growth of the organism) in the experiment with C. glabrata NCPF8018 (NCPF8018, read-out: MIC C. Glabrata NCPF8018) was 0.5 to 4 µg/mL (≈ 1.63 to 13.1 µM); in the experiment on C. glabrata NCPF8018 (NCPF8018, read-out: MIC Fluconazole, C. glabrata 8018) it was more than 128 µg/mL; in the experiment on C. glabrata NCPF8018 (NCPF8018, Table 4, common panel, 24 hours, ≥50% inhibition, read-out: MIC C. glabrata NCPF8018), 0.5 to 4 µg/mL (≈ 1.63 to 13.1 µM); in the experiment with C. auris 8971 (Candidozyma auris, 8971, 24 h, read-out: MIC C. auris 8971), 16 µg/mL (≈ 52.2 µM); with C. auris 8971 (Candidozyma auris, 8971, read-out: MIC C. auris 8971), 32 µg/mL (≈ 104 µM); with C. auris 8977 (Candidozyma auris, 8977, 24 h, read-out: MIC C. auris 8977), 32 µg/mL (≈ 104 µM). The MIC in the experiment on C. auris 8977 (Candidozyma auris, 8977, read-out: MIC C. auris 8977) is 16 µg/mL (≈ 52.2 µM); in the experiment on C. auris 8984 (Candidozyma auris, 8984, 24 h, read-out: MIC C. auris 8984), more than 128 µg/mL; in the experiment with C. auris 8984 (Candidozyma auris, 8984, read-out: MIC C. auris 8984), more than 128 µg/mL. Also, the “Minimum inhibitory concentration Aspergillus fulavus ATCC 204304” value in [1] is listed as more than 64. Also, the “Minimum inhibitory concentration Aspergillus carbonarius ATCC 8740” value in experiment [2] is reported as more than 64. In experiment [3], the “Minimum inhibitory concentration Aspergillus fumigatus ATCC 1028” value is recorded as more than 64. For the same compound, the “Minimum inhibitory concentration Aspergillus fumigatus ATCC 16424” value in experiment [4] is more than 64. Also, the “Minimum inhibitory concentration Aspergillus fumigatus ATCC 204305” value in experiment [5] is more than 64. In addition, the “Minimum inhibitory concentration Aspergillus fumigatus ATCC 13073” value in [6] is given as more than 64.
